The subject of experiment [1] is E. coli 25922. As to the kind of experiment: MIC assay, liquid medium microdilution (planktonic growth). Format: cell-based, Escherichia coli. On the procedure:
(§1) The antibacterial assays were performed on Gram-negative (Escherichia coli ATCC 25922, E. coli 5, Pseudomonas aeruginosa ATCC 27853, P. aeruginosa ATCC 9027) and Gram-positive (Staphylococcus aureus ATCC 25923, S. aureus ATCC 6538, MRSA (Meticillin-resistant S. aureus) 388, ATCC, American Type Culture Collection) bacterial strains. Microbial suspensions (1.5 × 10^8 CFU/mL; colony forming units (CFU)) corresponding to 0.5 McFarland density obtained from 15 to 18-h bacterial cultures developed on solid media were used. The antimicrobial activity was tested on Mueller–Hinton agar medium.
(§2) The quantitative assay of the antimicrobial activity was performed by the liquid medium microdilution method, in 96-well multi-well plates, to establish the minimal inhibitory concentration (MIC). For this purpose, serial two-fold dilutions of the compounds ranging between 1.000 and 1.95 μg/mL were performed in a 200 μL volume of broth and each well was seeded with 50 μL microbial inoculums. Sterility control (wells containing only culture medium) and culture controls (wells containing culture medium seeded with the microbial inoculum) were used. The influence of the DMSO solvent was also quantified in a series of wells containing DMSO, diluted accordingly with the dilution scheme used for the complexes. The plates were incubated for 24 h at 37 °C, and MIC values were considered as the lowest concentration of the tested compound that inhibited the visible growth of the microbial overnight cultures.
On the technique in general: Broth dilution looks for growth in wells or tubes with falling amounts of substance.

In experiment [2] the test system is E. coli 5 ESBL. The description is as above. It is filed as cell-based, Escherichia coli. On the procedure:
as §1, §2

In experiment [3] the test system is P. aeruginosa 27853. The description is as above. Format: cell-based, Pseudomonas aeruginosa. On the procedure: as §1, §2
For experiment [4], the system named is P. aeruginosa 9027. The experiment is described as above. It is filed as cell-based, Pseudomonas aeruginosa. On the procedure:
as §1, §2

Experiment [5] concerns MRSA. The experiment is described as above. It is filed as cell-based, Staphylococcus aureus. On the procedure:
as §1, §2

Experiment [6] concerns S. aureus 25923. Described as above. Format: cell-based, Staphylococcus aureus. Here is the method:
as §1, §2

Experiment [7] has as its system S. aureus 6538. The experiment is described as above. It is filed as cell-based, Staphylococcus aureus. Here is the method:
as §1, §2

Experiment [8] relates to E. coli 25922. As to the kind of experiment: MBEC assay, micro-titer method (biofilm). It is filed as cell-based, Escherichia coli. On the procedure:
as §1
(§3) The assessment of the complexes’ influence on the microbial ability to colonize an inert substratum with the establishment of the minimal biofilm eradication concentration (MBEC) was performed by the micro-titer method, following previously described protocols. The absorbance at 490 nm was measured with an Apollo LB 911ELISA (Berthold Technologies GmbH & Co. KG, Waltham, MA, USA) reader. All experiments were performed in triplicates.

Experiment [9] relates to E. coli 5 ESBL. As to the kind of experiment: MBEC assay, micro-titer method (biofilm). It is filed as cell-based, Escherichia coli. Here is the method: as §1, §3
Experiment [10] concerns P. aeruginosa 27853. As to the kind of experiment: MBEC assay, micro-titer method (biofilm). Format: cell-based, Pseudomonas aeruginosa. Here is the method:
as §1, §3

The test system of experiment [11] is P. aeruginosa 9027. The experiment can be described thus: MBEC assay, micro-titer method (biofilm). Format: cell-based, Pseudomonas aeruginosa. Here is the method: as §1, §3
The test system of experiment [12] is MRSA. As to the kind of experiment: MBEC assay, micro-titer method (biofilm). It is filed as cell-based, Staphylococcus aureus. On the procedure: as §1, §3
Experiment [13] concerns S. aureus 25923. As to the kind of experiment: MBEC assay, micro-titer method (biofilm). It is filed as cell-based, Staphylococcus aureus. Here is the method:
as §1, §3

Experiment [14] concerns S. aureus 6538. The experiment can be described thus: MBEC assay, micro-titer method (biofilm). It is filed as cell-based, Staphylococcus aureus. Here is the method:
as §1, §3

The subject of experiment [15] is human colon adenocarcinoma (HT 29) cell. Set-up: method as in doi:10.1007/s10973-016-5425-7. The note with it: cited from earlier work.
[16] abbreviates: P. aeruginosa 27853, 24 h at 37 °C.
Setting [17] is: P. aeruginosa 9027 (multi-drug-resistant), 24 h at 37 °C.

In brackets after ≈: the same amount, converted by molar mass. Read-outs that look alike come from different tables or passages of the source.

Turning to `O.[Cu+2].[O-][Cl+3]([O-])([O-])[O-].[O-][Cl+3]([O-])([O-])[O-].c1cnc2c(c1)ccc1cccnc12.c1cnc2c(c1)ccc1cccnc12` [CuPP, [Cu(phen)2(OH2)](ClO4)2], the MIC – broadly, the lowest concentration that inhibits growth of the organism – with E. coli 25922 [1] (E. coli 25922, 24 h at 37 °C) was found to be 0.03 mM; in the experiment with E. coli 5 ESBL [2] (E. coli 5 ESBL, 24 h at 37 °C), 0.03 mM; against P. aeruginosa 27853 [3] (setting [16]), 0.50 mM; in the experiment on P. aeruginosa 9027 [4] (setting [17]), 0.50 mM; in the experiment on MRSA [5] (24 h at 37 °C), 0.12 mM; against S. aureus 25923 [6] (S. aureus 25923, 24 h at 37 °C) it was 0.03 mM. The same compound had an MIC against S. aureus 6538 [7] (S. aureus 6538, 24 h at 37 °C) of 0.03 mM. Moreover, the MBEC value in the experiment on E. coli 25922 [8] was determined as 0.10 mM; in the experiment on E. coli 5 ESBL [9], 0.30 mM; in the experiment with P. aeruginosa 27853 [10], 0.50 mM; in the experiment on P. aeruginosa 9027 [11], 0.50 mM; in the experiment on MRSA [12] it was 0.10 mM; with S. aureus 25923 [13] it was 0.03 mM. In the experiment on S. aureus 6538 [14], this compound returned an MBEC value of 0.03 mM.
Turning to `CC(=O)[O-].CC(=O)[O-].Cc1cc(-c2ccccc2)nc2ncnn12.[Cu+2]` [[Cu(pmtp)(CH3COO)2]·0.5H2O], the Antiproliferative effect result in experiment [15] was “dose-dependent antiproliferative effect”.
As to `c1ccc(-c2ccccn2)nc1` [bpy, 2,2′-bipyridine], the minimal inhibitory concentration (MIC) was 4 mM (≈ 625 µg/mL) against E. coli 25922 [1] (Escherichia coli, 25922, 24 h); 4 mM (≈ 625 µg/mL) in the experiment with E. coli 5 ESBL [2] (Escherichia coli, 5ESBL, 24 h); 8 mM (≈ 1250 µg/mL) with P. aeruginosa 27853 [3] (Pseudomonas aeruginosa, 27853, 24 h); 4 mM (≈ 625 µg/mL) against P. aeruginosa 9027 [4] (Pseudomonas aeruginosa, 9027, 24 h); 8 mM (≈ 1250 µg/mL) in the experiment with MRSA [5] (Staphylococcus aureus, 24 h); 8 mM (≈ 1250 µg/mL) in the experiment on S. aureus 25923 [6] (Staphylococcus aureus, 25923, 24 h). The compound also came in with a minimum inhibitory concentration (MIC) with S. aureus 6538 [7] (Staphylococcus aureus, 6538, 24 h) of 8 mM (≈ 1250 µg/mL). In addition, the MBEC value in the experiment on E. coli 25922 [8] was found to be 8.00 mM; in the experiment on E. coli 5 ESBL [9] it was 8.00 mM; with P. aeruginosa 27853 [10], 8.00 mM; in the experiment on P. aeruginosa 9027 [11], 4.00 mM; in the experiment with MRSA [12] it was 8.00 mM; in the experiment on S. aureus 25923 [13], 4.00 mM. In the experiment on S. aureus 6538 [14], this compound returned an MBEC value of 8.00 mM.
For `c1cnc2c(c1)ccc1cccnc12` [phen, 1,10-phenanthroline], the minimum inhibitory concentration (MIC) with E. coli 25922 [1] (Escherichia coli, E. coli 25922, 24 h at 37 °C, read-out: MIC) came to 3.5 mM (≈ 631 µg/mL); in the experiment with E. coli 5 ESBL [2] (Escherichia coli, E. coli 5 ESBL, 24 h at 37 °C, read-out: MIC), 3.5 mM (≈ 631 µg/mL); with P. aeruginosa 27853 [3] (Pseudomonas aeruginosa, P. aeruginosa 27853, 24 h at 37 °C, read-out: MIC), 7 mM (≈ 1260 µg/mL); in the experiment with P. aeruginosa 9027 [4] (Pseudomonas aeruginosa, P. aeruginosa 9027 (multi-drug-resistant), 24 h at 37 °C, read-out: MIC) it was 3.5 mM (≈ 631 µg/mL); with MRSA [5] (Staphylococcus aureus, 24 h at 37 °C, read-out: MIC), 7 mM (≈ 1260 µg/mL); in the experiment with S. aureus 25923 [6] (Staphylococcus aureus, S. aureus 25923, 24 h at 37 °C, read-out: MIC), 7 mM (≈ 1260 µg/mL). Moreover, in the experiment with S. aureus 6538 [7] (Staphylococcus aureus, S. aureus 6538, 24 h at 37 °C, read-out: MIC), the minimum inhibitory concentration (MIC) stood at 7 mM (≈ 1260 µg/mL). Besides, the MBEC value in the experiment with E. coli 25922 [8] came to 7.00 mM; with E. coli 5 ESBL [9], 3.50 mM; in the experiment with P. aeruginosa 27853 [10], 7.00 mM; in the experiment on P. aeruginosa 9027 [11], 3.50 mM; with MRSA [12] it was 7.00 mM; with S. aureus 25923 [13], 7.00 mM. Moreover, the MBEC value with S. aureus 6538 [14] came to 7.00 mM.
Turning to {[Cu(bpy)2(μ2OClO3)]·ClO4}n [CuBP], the MIC amounted to 0.54 mM against E. coli 25922 [1] (E. coli 25922, 24 h at 37 °C); 0.54 mM in the experiment on E. coli 5 ESBL [2] (E. coli 5 ESBL, 24 h at 37 °C); 1.09 mM in the experiment with P. aeruginosa 27853 [3] (setting [16]); 1.09 mM against P. aeruginosa 9027 [4] (setting [17]); 0.27 mM in the experiment on MRSA [5] (24 h at 37 °C); 0.27 mM with S. aureus 25923 [6] (S. aureus 25923, 24 h at 37 °C). Also, the MIC in the experiment with S. aureus 6538 [7] (S. aureus 6538, 24 h at 37 °C) turned out to be 0.27 mM. The MBEC value was 0.54 mM in the experiment with E. coli 25922 [8]; 0.54 mM with E. coli 5 ESBL [9]; 1.09 mM in the experiment on P. aeruginosa 27853 [10]; 1.09 mM in the experiment with P. aeruginosa 9027 [11]; 0.27 mM in the experiment with MRSA [12]; 0.14 mM in the experiment on S. aureus 25923 [13]. Further, the MBEC value in the experiment with S. aureus 6538 [14] is on record as 0.14 mM.
